Assay results reported in article PMC11191687.

Experiments:
[1] = as series A (acyl azide from hydrazide, biphasic EtOAc/buffer), isolated after prep HPLC; conditions: 21-membered ring, aq phosphate buffer (6 M GdmCl) / EtOAc biphasic, 3.0 mM, 0.25 h, 2 steps
[2] = head-to-tail lactamisation of unprotected peptide acyl azide (from C-terminal hydrazide, 20 equiv NaNO2, pH 3, -15 C, then NaHCO3 to pH ~7), biphasic EtOAc/buffer; conditions: 21-membered ring, aq phosphate buffer (6 M GdmCl, 50 mM NaH2PO4, 1.5 mM EDTA) / EtOAc biphasic, 3.0 mM, 2 steps
[3] = lactamisation (head-to-tail or side-chain-to-tail) of unprotected peptide acyl azide (from hydrazide, 20 equiv NaNO2, pH 3, -15 C, then NaHCO3 to pH ~7), MeCN cosolvent; conditions: from C=CC[C@H](NC(=O)[C@H](CC(C)C)NC(=O)[C@H](CC(C)C)N(C)C(=O)[C@H](C)NC(=O)[C@H](Cc1ccc(O)c([N+](=O)[O-])c1)NC(=O)[C@H](CC(C)C)N(C)C(=O)[C@@H](N)Cc1cn(C(C)(C)C=C)c2ccccc12)C(=O)N=[N+]=[N-]; 21-membered ring; aq phosphate buffer (6 M GdmCl) diluted with 2 vol 50% MeCN/water; 2.2 mM; 0.27 h; 2 steps

Question: For C=CC[C@@H]1NC(=O)[C@H](CC(C)C)NC(=O)[C@H](CC(C)C)N(C)C(=O)[C@H](CO)NC(=O)[C@H](Cc2ccc(O)c([N+](=O)[O-])c2)NC(=O)[C@H](CC(C)C)N(C)C(=O)[C@H](Cc2c[nH]c3ccccc23)NC1=O [H-Trp-N-Me-Leu-Tyr(3-NO2)-Ser-N-Me-Leu-Leu-allylGly-N3], which ring closure, yield over several steps ([1]; from C=CC[C@H](NC(=O)[C@H](CC(C)C)NC(=O)[C@H](CC(C)C)N(C)C(=O)[C@H](CO)NC(=O)[C@H](Cc1ccc(O)c([N+](=O)[O-])c1)NC(=O)[C@H](CC(C)C)N(C)C(=O)[C@@H](N)Cc1c[nH]c2ccccc12)C(=O)N=[N+]=[N-]) is on record?
Answer: 42%

Question: What about the ring closure, conversion by HPLC ([2]; from C=CC[C@H](NC(=O)[C@H](CC(C)C)NC(=O)[C@H](CC(C)C)N(C)C(=O)[C@H](CO)NC(=O)[C@H](Cc1ccc(O)c([N+](=O)[O-])c1)NC(=O)[C@H](CC(C)C)N(C)C(=O)[C@@H](N)Cc1c[nH]c2ccccc12)C(=O)N=[N+]=[N-], 0.25 h) of the same compound?
Answer: 84%

Question: With C=CC[C@@H]1NC(=O)[C@H](CC(C)C)NC(=O)[C@H](CC(C)C)N(C)C(=O)[C@H](C)NC(=O)[C@H](Cc2ccc(O)c([N+](=O)[O-])c2)NC(=O)[C@H](CC(C)C)N(C)C(=O)[C@@H](Cc2cn(C)c3ccccc23)NC1=O as the compound, how does the ring closure, conversion by HPLC ([2]; from C=CC[C@H](NC(=O)[C@H](CC(C)C)NC(=O)[C@H](CC(C)C)N(C)C(=O)[C@H](C)NC(=O)[C@H](Cc1ccc(O)c([N+](=O)[O-])c1)NC(=O)[C@H](CC(C)C)N(C)C(=O)[C@H](N)Cc1cn(C)c2ccccc12)C(=O)N=[N+]=[N-]) read?
Answer: 95%

Question: Which ring closure, yield over several steps ([1]; from C=CC[C@H](NC(=O)[C@H](CC(C)C)NC(=O)[C@H](CC(C)C)N(C)C(=O)[C@H](C)NC(=O)[C@H](Cc1ccc(O)c([N+](=O)[O-])c1)NC(=O)[C@H](CC(C)C)N(C)C(=O)[C@@H](N)Cc1cn(C)c2ccccc12)C(=O)N=[N+]=[N-]) does the source give for C=CC[C@@H]1NC(=O)[C@H](CC(C)C)NC(=O)[C@H](CC(C)C)N(C)C(=O)[C@H](C)NC(=O)[C@H](Cc2ccc(O)c([N+](=O)[O-])c2)NC(=O)[C@H](CC(C)C)N(C)C(=O)[C@H](Cc2cn(C)c3ccccc23)NC1=O [H-Trp(1-Me)-N-Me-Leu-Tyr(3-NO2)-Ala-N-Me-Leu-Leu-allylGly-N3] here?
Answer: 58%

Question: What about the ring closure, conversion by HPLC ([2]; from C=CC[C@H](NC(=O)[C@H](CC(C)C)NC(=O)[C@H](CC(C)C)N(C)C(=O)[C@H](C)NC(=O)[C@H](Cc1ccc(O)c([N+](=O)[O-])c1)NC(=O)[C@H](CC(C)C)N(C)C(=O)[C@@H](N)Cc1cn(C)c2ccccc12)C(=O)N=[N+]=[N-], 0.25 h) of the same compound?
Answer: 93%

Question: Which ring closure, yield over several steps ([1]; from CC(C)C[C@H](NC(=O)[C@H](CC(C)C)N(C)C(=O)[C@H](C)NC(=O)[C@H](Cc1ccc(O)c([N+](=O)[O-])c1)NC(=O)[C@H](CC(C)C)N(C)C(=O)[C@@H](N)Cc1c[nH]c2ccccc12)C(=O)N[C@@H](C)C(=O)N=[N+]=[N-]) does the source give for CC(C)C[C@@H]1NC(=O)[C@H](CC(C)C)N(C)C(=O)[C@H](C)NC(=O)[C@H](Cc2ccc(O)c([N+](=O)[O-])c2)NC(=O)[C@H](CC(C)C)N(C)C(=O)[C@H](Cc2c[nH]c3ccccc23)NC(=O)[C@H](C)NC1=O [H-Trp-N-Me-Leu-Tyr(3-NO2)-Ala-N-Me-Leu-Leu-Ala-N3] here?
Answer: 52%

Question: And the ring closure, conversion by HPLC ([2]; from CC(C)C[C@H](NC(=O)[C@H](CC(C)C)N(C)C(=O)[C@H](C)NC(=O)[C@H](Cc1ccc(O)c([N+](=O)[O-])c1)NC(=O)[C@H](CC(C)C)N(C)C(=O)[C@@H](N)Cc1c[nH]c2ccccc12)C(=O)N[C@@H](C)C(=O)N=[N+]=[N-], 0.25 h)?
Answer: 87%

Question: For C=CC(C)(C)n1cc(C[C@@H]2NC(=O)[C@H](C/C=C/C)NC(=O)[C@H](CC(C)C)NC(=O)[C@H](CC(C)C)N(C)C(=O)[C@H](C)NC(=O)[C@H](Cc3ccc(O)c([N+](=O)[O-])c3)NC(=O)[C@H](CC(C)C)N(C)C2=O)c2ccccc21, which ring closure, yield over several steps ([1]; from C=CC(C)(C)n1cc(C[C@H](N)C(=O)N(C)[C@@H](CC(C)C)C(=O)N[C@@H](Cc2ccc(O)c([N+](=O)[O-])c2)C(=O)N[C@@H](C)C(=O)N(C)[C@@H](CC(C)C)C(=O)N[C@@H](CC(C)C)C(=O)N[C@@H](C/C=C/C)C(=O)N=[N+]=[N-])c2ccccc21) is on record?
Answer: 39%

Question: What about the ring closure, conversion by HPLC ([2]; from C=CC(C)(C)n1cc(C[C@H](N)C(=O)N(C)[C@@H](CC(C)C)C(=O)N[C@@H](Cc2ccc(O)c([N+](=O)[O-])c2)C(=O)N[C@@H](C)C(=O)N(C)[C@@H](CC(C)C)C(=O)N[C@@H](CC(C)C)C(=O)N[C@@H](C/C=C/C)C(=O)N=[N+]=[N-])c2ccccc21, 0.25 h) of the same compound?
Answer: 84%

Question: For C=CC[C@@H]1NC(=O)[C@H](CC(C)C)NC(=O)[C@H](CC(C)C)N(C)C(=O)[C@H](C)NC(=O)[C@H](Cc2ccc(O)c([N+](=O)[O-])c2)NC(=O)[C@H](CC(C)C)N(C)C(=O)[C@H](Cc2cn(C(C)(C)C=C)c3ccccc23)NC1=O, which ring closure, yield over several steps ([1]; from C=CC[C@H](NC(=O)[C@H](CC(C)C)NC(=O)[C@H](CC(C)C)N(C)C(=O)[C@H](C)NC(=O)[C@H](Cc1ccc(O)c([N+](=O)[O-])c1)NC(=O)[C@H](CC(C)C)N(C)C(=O)[C@@H](N)Cc1cn(C(C)(C)C=C)c2ccccc12)C(=O)N=[N+]=[N-]) is on record?
Answer: 56%

Question: And the ring closure, conversion by HPLC [3]?
Answer: 90%

Question: For C=CC(C)(C)n1cc(C[C@@H]2NC(=O)[C@H](Cc3ccccc3)NC(=O)[C@H](CC(C)C)NC(=O)[C@H](CC(C)C)N(C)C(=O)[C@H](C)NC(=O)[C@H](Cc3ccc(O)c([N+](=O)[O-])c3)NC(=O)[C@H](CC(C)C)N(C)C2=O)c2ccccc21, which ring closure, yield over several steps ([1]; from C=CC(C)(C)n1cc(C[C@H](N)C(=O)N(C)[C@@H](CC(C)C)C(=O)N[C@@H](Cc2ccc(O)c([N+](=O)[O-])c2)C(=O)N[C@@H](C)C(=O)N(C)[C@@H](CC(C)C)C(=O)N[C@@H](CC(C)C)C(=O)N[C@@H](Cc2ccccc2)C(=O)N=[N+]=[N-])c2ccccc21) is on record?
Answer: 22%

Question: What about the ring closure, conversion by HPLC ([2]; from C=CC(C)(C)n1cc(C[C@H](N)C(=O)N(C)[C@@H](CC(C)C)C(=O)N[C@@H](Cc2ccc(O)c([N+](=O)[O-])c2)C(=O)N[C@@H](C)C(=O)N(C)[C@@H](CC(C)C)C(=O)N[C@@H](CC(C)C)C(=O)N[C@@H](Cc2ccccc2)C(=O)N=[N+]=[N-])c2ccccc21, 0.25 h) of the same compound?
Answer: 63%

Question: Which results are given for C=CC[C@@H]1NC(=O)[C@H](CC(C)C)N(C)C(=O)[C@H](C(C)C)NC(=O)[C@H](Cc2ccccc2)NC(=O)[C@H](C)NC(=O)[C@H](CC(C)C)N(C)C(=O)[C@H](Cc2cn(C)c3ccccc23)NC1=O [H-Trp(1-Me)-N-Me-Leu-Ala-Phe-Val-N-Me-Leu-allylGly-N3]?
Answer: ring closure, yield over several steps ([1]; from C=CC[C@H](NC(=O)[C@H](CC(C)C)N(C)C(=O)[C@@H](NC(=O)[C@H](Cc1ccccc1)NC(=O)[C@H](C)NC(=O)[C@H](CC(C)C)N(C)C(=O)[C@@H](N)Cc1cn(C)c2ccccc12)C(C)C)C(=O)N=[N+]=[N-]): 50%; ring closure, conversion by HPLC ([2]; from C=CC[C@H](NC(=O)[C@H](CC(C)C)N(C)C(=O)[C@@H](NC(=O)[C@H](Cc1ccccc1)NC(=O)[C@H](C)NC(=O)[C@H](CC(C)C)N(C)C(=O)[C@@H](N)Cc1cn(C)c2ccccc12)C(C)C)C(=O)N=[N+]=[N-], 0.25 h): 75%

Question: What does the source list for C=CC[C@@H]1NC(=O)[C@H](CC(C)C)NC(=O)[C@H](CC(C)C)N(C)C(=O)[C@H]([C@@H](C)O)NC(=O)[C@H](Cc2ccc(O)c([N+](=O)[O-])c2)NC(=O)[C@H](CC(C)C)N(C)C(=O)[C@H](Cc2c[nH]c3ccccc23)NC1=O [H-Trp-N-Me-Leu-Tyr(3-NO2)-Thr-N-Me-Leu-Leu-allylGly-N3]?
Answer: ring closure, yield over several steps ([1]; from C=CC[C@H](NC(=O)[C@H](CC(C)C)NC(=O)[C@H](CC(C)C)N(C)C(=O)[C@@H](NC(=O)[C@H](Cc1ccc(O)c([N+](=O)[O-])c1)NC(=O)[C@H](CC(C)C)N(C)C(=O)[C@@H](N)Cc1c[nH]c2ccccc12)[C@@H](C)O)C(=O)N=[N+]=[N-]): 35%; ring closure, conversion by HPLC ([2]; from C=CC[C@H](NC(=O)[C@H](CC(C)C)NC(=O)[C@H](CC(C)C)N(C)C(=O)[C@@H](NC(=O)[C@H](Cc1ccc(O)c([N+](=O)[O-])c1)NC(=O)[C@H](CC(C)C)N(C)C(=O)[C@@H](N)Cc1c[nH]c2ccccc12)[C@@H](C)O)C(=O)N=[N+]=[N-], 0.25 h): 78%
